Source: ChEMBL document CHEMBL3525964 (Drug Metab Dispos, 2012)

Legend:
Plasma [1] = assay: Drug level in human plasma treated with [14C}LY2452473 at 15 mg, po after 4 hrs administered as single dose by HPLC analysis relative to total radioactivity; type: ADME, organism-based; settings: in vivo
Plasma [2] = assay: Drug level in plasma of human treated with [14C}LY2452473 at 15 mg, po administered as single dose by LC-MS/MS method; type: ADME, organism-based; settings: in vivo
[3] = Drug level in urine of human treated with [14C}LY2452473 at 15 mg, po administered as single dose by LC-MS/MS method; type: ADME, organism-based; settings: in vivo
[4] = Drug level in feces of human treated with [14C}LY2452473 at 15 mg, po administered as single dose by LC-MS/MS method; type: ADME, organism-based; settings: in vivo
Plasma [5] = assay: Drug level in human plasma treated with [14C}LY2452473 at 15 mg, po after 1 hr administered as single dose by HPLC analysis; type: ADME, organism-based; settings: in vivo
Plasma [6] = assay: Drug level in human plasma treated with [14C}LY2452473 at 15 mg, po after 2 hrs administered as single dose by HPLC analysis; type: ADME, organism-based; settings: in vivo
Plasma [7] = assay: Drug level in human plasma treated with [14C}LY2452473 at 15 mg, po after 4 hrs administered as single dose by HPLC analysis; type: ADME, organism-based; settings: in vivo
Plasma [8] = assay: Drug level in human plasma treated with [14C}LY2452473 at 15 mg, po after 8 hrs administered as single dose by HPLC analysis; type: ADME, organism-based; settings: in vivo
Plasma [9] = assay: Drug level in human plasma treated with [14C}LY2452473 at 15 mg, po after 24 hrs administered as single dose by HPLC analysis; type: ADME, organism-based; settings: in vivo
Plasma [10] = assay: Drug level in human plasma treated with [14C}LY2452473 at 15 mg, po after 48 hrs administered as single dose by HPLC analysis; type: ADME, organism-based; settings: in vivo
[11] = Drug excretion in urine of human treated with [14C}LY2452473 at 15 mg, po administered as single dose by HPLC analysis; type: ADME, organism-based; settings: read-out: Drug excretion
[12] = Total drug excretion in human treated with [14C}LY2452473 at 15 mg, po administered as single dose by HPLC analysis; type: ADME, organism-based; settings: in vivo, read-out: Drug excretion
Plasma [13] = assay: Drug metabolism in human plasma assessed as LY2452473 formation at 15 mg, po administered as single dose by LC-MS/MS method; type: ADME, organism-based; settings: in vivo
[14] = Drug metabolism in human urine assessed as LY2452473 formation at 15 mg, po administered as single dose by LC-MS/MS method; type: ADME, organism-based; settings: in vivo
[15] = Drug metabolism in human feces assessed as LY2452473 formation at 15 mg, po administered as single dose by LC-MS/MS method; type: ADME, organism-based; settings: in vivo
Plasma [16] = assay: Drug metabolism in human plasma assessed as (2S)-2-amino-4-(2-pyridylmethyl)-2,3-dihydro-1H-cyclopenta[b]indole-7-carbonitrile formation at 15 mg, po administered as single dose by LC-MS/MS method; type: ADME, organism-based; settings: in vivo
[17] = Drug metabolism in human urine assessed as (2S)-2-amino-4-(2-pyridylmethyl)-2,3-dihydro-1H-cyclopenta[b]indole-7-carbonitrile formation at 15 mg, po administered as single dose by LC-MS/MS method; type: ADME, organism-based; settings: in vivo
[18] = Drug metabolism in human feces assessed as (2S)-2-amino-4-(2-pyridylmethyl)-2,3-dihydro-1H-cyclopenta[b]indole-7-carbonitrile formation at 15 mg, po administered as single dose by LC-MS/MS method; type: ADME, organism-based; settings: in vivo
Plasma [19] = assay: Drug metabolism in human plasma assessed as N-[(2S)-7-cyano-4-(2-pyridylmethyl)-2,3-dihydro-1H-cyclopenta[b]indol-2-yl]acetamide formation at 15 mg, po administered as single dose by LC-MS/MS method; type: ADME, organism-based; settings: in vivo
[20] = Drug metabolism in human urine assessed as N-[(2S)-7-cyano-4-(2-pyridylmethyl)-2,3-dihydro-1H-cyclopenta[b]indol-2-yl]acetamide formation at 15 mg, po administered as single dose by LC-MS/MS method; type: ADME, organism-based; settings: in vivo
[21] = Drug metabolism in human feces assessed as N-[(2S)-7-cyano-4-(2-pyridylmethyl)-2,3-dihydro-1H-cyclopenta[b]indol-2-yl]acetamide formation at 15 mg, po administered as single dose by LC-MS/MS method; type: ADME, organism-based; settings: in vivo
Plasma [22] = assay: Drug metabolism in human plasma assessed as isopropyl(2S)-7-cyano-3a,8b-dihydroxy-4-(pyridin-2-ylmethyl)-1,2,3,3a,4,8b-hexahydrocyclopenta[b]indol-2-ylcarbamate formation at 15 mg, po administered as single dose by LC-MS/MS method; type: ADME, organism-based; settings: in vivo
[23] = Drug metabolism in human urine assessed as isopropyl(2S)-7-cyano-3a,8b-dihydroxy-4-(pyridin-2-ylmethyl)-1,2,3,3a,4,8b-hexahydrocyclopenta[b]indol-2-ylcarbamate formation at 15 mg, po administered as single dose by LC-MS/MS method; type: ADME, organism-based; settings: in vivo
[24] = Drug metabolism in human feces assessed as isopropyl(2S)-7-cyano-3a,8b-dihydroxy-4-(pyridin-2-ylmethyl)-1,2,3,3a,4,8b-hexahydrocyclopenta[b]indol-2-ylcarbamate formation at 15 mg, po administered as single dose by LC-MS/MS method; type: ADME, organism-based; settings: in vivo
Plasma [25] = assay: Drug metabolism in human plasma assessed as isopropyl N-[(2S,3S)-7-cyano-3-hydroxy-4-(2-pyridylmethyl)-2,3-dihydro-1H-cyclopenta[b]indol-2-yl]carbamate formation at 15 mg, po administered as single dose by LC-MS/MS method; type: ADME, organism-based; settings: in vivo
[26] = Drug metabolism in human urine assessed as isopropyl N-[(2S,3S)-7-cyano-3-hydroxy-4-(2-pyridylmethyl)-2,3-dihydro-1H-cyclopenta[b]indol-2-yl]carbamate formation at 15 mg, po administered as single dose by LC-MS/MS method; type: ADME, organism-based; settings: in vivo
[27] = Drug metabolism in human feces assessed as isopropyl N-[(2S,3S)-7-cyano-3-hydroxy-4-(2-pyridylmethyl)-2,3-dihydro-1H-cyclopenta[b]indol-2-yl]carbamate formation at 15 mg, po administered as single dose by LC-MS/MS method; type: ADME, organism-based; settings: in vivo
Plasma [28] = assay: Drug metabolism in human plasma assessed as [(1R)-2-hydroxy-1-methyl-ethyl]N-[(2S)-7-cyano-4-(2-pyridylmethyl)-2,3-dihydro-1H-cyclopenta[b]indol-2-yl]carbamate formation at 15 mg, po administered as single dose by LC-MS/MS method; type: ADME, organism-based; settings: in vivo
[29] = Drug metabolism in human urine assessed as [(1R)-2-hydroxy-1-methyl-ethyl]N-[(2S)-7-cyano-4-(2-pyridylmethyl)-2,3-dihydro-1H-cyclopenta[b]indol-2-yl]carbamate formation at 15 mg, po administered as single dose by LC-MS/MS method; type: ADME, organism-based; settings: in vivo
[30] = Drug metabolism in human feces assessed as [(1R)-2-hydroxy-1-methyl-ethyl]N-[(2S)-7-cyano-4-(2-pyridylmethyl)-2,3-dihydro-1H-cyclopenta[b]indol-2-yl]carbamate formation at 15 mg, po administered as single dose by LC-MS/MS method; type: ADME, organism-based; settings: in vivo
Plasma [31] = assay: Drug level in human plasma at 15 mg, po after 48 hrs administered as single dose by HPLC analysis; type: ADME, organism-based; settings: in vivo, pooled result: one value given for 5 cell lines, strains, targets or settings
Homo sapiens [32] = assay: Tmax in human assessed as total radioactivity at 15 mg, po administered as single dose by liquid scintillation counting method; type: ADME, organism-based; settings: in vivo
Homo sapiens [33] = assay: Elimination half life in human assessed as total radioactivity at 15 mg, po administered as single dose by liquid scintillation counting method; type: ADME, organism-based; settings: in vivo
Homo sapiens [34] = assay: Tlast in human assessed as total radioactivity at 15 mg, po administered as single dose by liquid scintillation counting method; type: ADME, organism-based; settings: in vivo
Homo sapiens [35] = assay: AUC (0 to time) in human assessed as total radioactivity at 15 mg, po administered as single dose by liquid scintillation counting method; type: ADME, organism-based, Plasma; settings: in vivo
Homo sapiens [36] = assay: AUC (0 to infinity) in human assessed as total radioactivity at 15 mg, po administered as single dose by liquid scintillation counting method; type: ADME, organism-based, Plasma; set-up: dose 15 mg, route oral, time infinity; settings: in vivo
Homo sapiens [37] = assay: Drug recovery in human at 15 mg, po administered as single dose after 0 to 312 hrs by liquid scintillation counting method; type: ADME, organism-based; settings: in vivo
[38] = Drug recovery in human urine at 15 mg, po administered as single dose after 0 to 312 hrs by liquid scintillation counting method; type: ADME, organism-based; settings: in vivo
[39] = Drug recovery in human feces at 15 mg, po administered as single dose after 0 to 312 hrs by liquid scintillation counting method; type: ADME, organism-based; settings: in vivo
Plasma [40] = assay: Drug level in human plasma at 15 mg, po after 24 hrs administered as single dose by HPLC analysis; type: ADME, organism-based; settings: in vivo

C[C@H](CO)OC(=O)N[C@H]1Cc2c(n(Cc3ccccn3)c3ccc(C#N)cc23)C1
Drug uptake (Plasma [1]): 2.3% | Drug metabolism (Plasma [2]): metabolite_detected | Drug metabolism [3]: metabolite_detected | Drug metabolism [4]: metabolite_detected | Drug uptake (Plasma [5]): 0% | Drug uptake (Plasma [6]): 0.89% | Drug uptake (Plasma [7]): 2.2% | Drug uptake (Plasma [8]): 6.94% | Drug uptake (Plasma [9]): 0% | Drug uptake (Plasma [10]): 0%

N#Cc1ccc2c(c1)c1c(n2Cc2ccccn2)C[C@@H](N)C1
dose excreted [11]: 3.39% | dose excreted [12]: 3.39% | Drug metabolism (Plasma [2]): metabolite_detected | Drug metabolism [3]: metabolite_detected | Drug metabolism [4]: metabolite_detected

CC(C)OC(=O)N[C@H]1CC2(O)c3cc(C#N)ccc3N(Cc3ccccn3)C2(O)C1 (some centres not stated)
Drug metabolism (Plasma [2]): metabolite_detected | Drug metabolism [3]: metabolite_detected | Drug metabolism [4]: metabolite_detected

C[C@@H](CO)OC(=O)N[C@H]1Cc2c(n(Cc3ccccn3)c3ccc(C#N)cc23)C1
Drug uptake (Plasma [5]): 0% | Drug uptake (Plasma [6]): 0% | Drug uptake (Plasma [7]): 0.97% | Drug uptake (Plasma [8]): 0% | Drug uptake (Plasma [9]): 0% | Drug uptake (Plasma [10]): 0%

CC(=O)N[C@H]1Cc2c(n(Cc3ccccn3)c3ccc(C#N)cc23)C1
Drug uptake (Plasma [1]): 20.6% | Drug metabolism (Plasma [2]): metabolite_detected | Drug metabolism [3]: metabolite_detected | Drug metabolism [4]: metabolite_detected | Drug uptake (Plasma [5]): 0% | Drug uptake (Plasma [6]): 0% | Drug uptake (Plasma [7]): 1.74% | Drug uptake (Plasma [8]): 10.48% | Drug uptake (Plasma [9]): 28.48% | Drug uptake (Plasma [10]): 38.68%

CC(C)OC(=O)N[C@H]1Cc2c(n(Cc3ccccn3)c3ccc(C#N)cc23)[C@H]1O
Drug uptake (Plasma [1]): 34.7% | Drug metabolism (Plasma [2]): metabolite_detected | Drug metabolism [3]: metabolite_detected | Drug metabolism [4]: metabolite_detected | Drug uptake (Plasma [5]): 21.9% | Drug uptake (Plasma [6]): 22.58% | Drug uptake (Plasma [7]): 24.24% | Drug uptake (Plasma [8]): 36.62% | Drug uptake (Plasma [9]): 37.11% | Drug uptake (Plasma [10]): 30.05%

CC(C)OC(=O)N[C@H]1Cc2c(n(Cc3ccccn3)c3ccc([14C]#N)cc23)C1
Drug metabolism (Plasma [13]): metabolite_detected | Drug metabolism [14]: metabolite_detected | Drug metabolism [15]: metabolite_detected | Drug metabolism (Plasma [16]): metabolite_detected | Drug metabolism [17]: metabolite_detected | Drug metabolism [18]: metabolite_detected | Drug metabolism (Plasma [19]): metabolite_detected | Drug metabolism [20]: metabolite_detected | Drug metabolism [21]: metabolite_detected | Drug metabolism (Plasma [22]): metabolite_detected | Drug metabolism [23]: metabolite_detected | Drug metabolism [24]: metabolite_detected | Drug metabolism (Plasma [25]): metabolite_detected | Drug metabolism [26]: metabolite_detected | Drug metabolism [27]: metabolite_detected | Drug metabolism (Plasma [28]): metabolite_detected | Drug metabolism [29]: metabolite_detected | Drug metabolism [30]: metabolite_detected | Drug uptake (Plasma [31]): 96.4% | Tmax (Homo sapiens [32]): 3 h | beta t1/2 (Homo sapiens [33]): 51 h | Tlast (Homo sapiens [34]): 204 h | AUCt (Homo sapiens [35]): 7210 ng·h/mL | AUC (Homo sapiens [36]): 7750 ng·h/mL | Drug recovery (Homo sapiens [37]): 94.5% | Drug recovery [38]: 47.9% | Drug recovery [39]: 46.6% | Drug uptake (Plasma [40]): 94.41%
